Assay results from publication PMC11335189, “Revealing molecular determinants governing mambalgin-3 pharmacology at acid-sensing ion channel 1 variants” (Cellular and Molecular Life Sciences: CMLS, 2024).
Read-outs that look alike come from different tables or passages of the source. Positions of bridges follow the written chain, without caps; N, C: chain ends. No end group written: not given here.

Experiments:
hASIC1b = target: T1, hASIC1b (Homo sapiens, UniProt P78348); assay: TEVC in Xenopus laevis oocytes expressing hASIC1b; assay type: cell-based; conditions: for remaining activity at 1 µM: 1 µM peptide, conditioning pH 7.45, mean, n ≥ 5, read-out: I/Icontrol
T1 construct: expressed in transfected cells; host or cells: Xenopus laevis oocytes (cRNA injection)
T1 sequence (P78348 1-562 isoform P78348-3): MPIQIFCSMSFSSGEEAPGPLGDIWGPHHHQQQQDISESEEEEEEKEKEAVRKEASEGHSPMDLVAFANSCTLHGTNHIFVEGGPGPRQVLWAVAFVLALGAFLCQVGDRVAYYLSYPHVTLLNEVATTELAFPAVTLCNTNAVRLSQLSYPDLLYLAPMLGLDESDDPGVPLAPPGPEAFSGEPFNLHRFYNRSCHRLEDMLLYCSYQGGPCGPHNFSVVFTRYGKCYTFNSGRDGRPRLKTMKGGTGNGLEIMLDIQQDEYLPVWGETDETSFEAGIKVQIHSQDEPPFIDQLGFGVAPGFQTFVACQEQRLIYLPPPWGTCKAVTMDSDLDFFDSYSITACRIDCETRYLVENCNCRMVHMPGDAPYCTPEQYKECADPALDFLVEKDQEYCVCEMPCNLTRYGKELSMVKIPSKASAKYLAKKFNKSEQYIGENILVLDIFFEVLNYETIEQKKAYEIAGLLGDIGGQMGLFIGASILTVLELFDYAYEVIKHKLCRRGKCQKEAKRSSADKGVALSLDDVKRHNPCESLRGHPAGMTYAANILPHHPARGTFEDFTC
Description: (§1) Two-electrode voltage-clamp (TEVC) experiments using Xenopus laevis oocytes were conducted as previously described. Briefly, oocytes were surgically removed from anaesthetised female frogs, then treated with collagenase (~ 1 mg/ml, Sigma type I) for 2 h under agitation at room temperature. cRNAs were synthesised using a mMessage mMachine T7 or SP6 transcription kit (Thermo Fisher Scientific Australia Pty Ltd, Scoresby, VIC, Australia) and injected into healthy stage V–VI oocytes at 0.2–20 ng per cell. Different amounts of RNA were used for different wild-type and mutant constructs, as well as to titrate expression levels to record over multiple days and maintaining consistent expression levels. Injected oocytes were incubated at 17 °C for 1–7 days in 50% Leibovitz’s L-15 medium (Gibco, Thermo Fisher Scientific Australia Pty Ltd, Scoresby, VIC, Australia), supplemented with 25 µg/mL gentamicin, 25 µg/mL streptomycin, and 2.5% fetal horse serum. Membrane currents were recorded 2–7 days after cRNA-injection under voltage-clamp at -60 mV (Axon Axoclamp 900 A, Molecular Devices, CA, USA) using two standard glass microelectrodes of 0.5–1 MΩ resistance when filled with 3 M KCl solution. Data were sampled at 2 kHz and filtered at 0.1 kHz using Clampex 10 software (Molecular Devices, CA, USA). A microperfusion system was used to allow fast extracellular solution exchange (bath volume = ~ 30 µL). All experiments were performed at room temperature (18–23 °C) in ND96 (96 mM NaCl, 2 mM KCl, 1.8 mM CaCl2, 2 mM MgCl2, 5 mM HEPES, pH 7.45). In solutions below pH 6.8, HEPES was replaced by MES. All solutions containing peptides contained 0.05% fatty acid free bovine serum albumin to decrease adsorptive losses of peptide to plasticware. For all channels tested, control current magnitudes between 500 and 9000 nA when tested using a conditioning pH of 7.45 and stimulating pH of 6 (except for the chimeras that were stimulated with pH 5) were used for data collection. Before recording any experiments, oocytes were stimulated multiple times with low pH to minimise and stabilise tachyphylaxis/desensitisation, which were then accounted for during analysis. Complete recovery of currents from Ma-3 induced modulation within 3 min of washout at all channels tested allowed for correction for tachyphylaxis/desensitisation during analyses.
(§2) Specific to this work, the standard protocol was for oocytes to be conditioned at pH 7.45 and channels stimulated every 60 s using a 5 s pH 5 or 6 application, unless stated otherwise. For all concentration-response data, peptides were applied for ~ 50 s between each low pH stimulus application. Activation curves were determined by conditioning oocytes at pH 8 (Fig. 2e − g; and Fig. 5a and b) or 7.45 (Fig. 6; and Supplementary Fig. 2d and c) for 55 s and applying low pH stimuli from 7.25 to 5.0 for 5 s. Steady-state desensitisation (SSD) was determined by applying conditioning solutions of pH values from 8 to 6 for 115 s prior to stimulation by a pH drop to 5 for 5 s. Ma-3 was only applied in the conditioning solution for activation and steady-state desensitisation curves in the presence of peptide. Control pH-dependence curves were determined in the absence of any Ma-3. When assessing the effect of Ma-3 on the rASIC1a: ASIC1b chimeras (C92 and C166; and for the comparative wild-type data), the conditioning pH was 7.45 and stimulating pH 5 (Fig. 3b). Specific details of the conditioning and stimulating pH are noted in each figure legend.
(§3) Data were analysed using pCLAMP-Clampfit software (Version 11, Molecular Devices, CA, USA) and GraphPad Prism 9.5 and 10.2.2 (GraphPad Software, San Diego, CA, USA). To obtain the Hill coefficient (nH) and half-maximal response (EC50, IC50, or pH50) the Hill equation was fitted to normalised concentration-response curves by using a non-linear fit to the data of a four-parameter logistic equation (“sigmoidal dose-response” in GraphPad Prism 9.5). […]

rASIC1a = target: T2, rASIC1a (Rattus norvegicus, UniProt P55926); assay: TEVC in Xenopus laevis oocytes expressing rASIC1a; assay type: cell-based; conditions: peptides applied at pH 7.45, stimulated at pH 6
T2 construct: expressed in transfected cells; host or cells: Xenopus laevis oocytes (cRNA injection)
T2 sequence (P55926 1-526): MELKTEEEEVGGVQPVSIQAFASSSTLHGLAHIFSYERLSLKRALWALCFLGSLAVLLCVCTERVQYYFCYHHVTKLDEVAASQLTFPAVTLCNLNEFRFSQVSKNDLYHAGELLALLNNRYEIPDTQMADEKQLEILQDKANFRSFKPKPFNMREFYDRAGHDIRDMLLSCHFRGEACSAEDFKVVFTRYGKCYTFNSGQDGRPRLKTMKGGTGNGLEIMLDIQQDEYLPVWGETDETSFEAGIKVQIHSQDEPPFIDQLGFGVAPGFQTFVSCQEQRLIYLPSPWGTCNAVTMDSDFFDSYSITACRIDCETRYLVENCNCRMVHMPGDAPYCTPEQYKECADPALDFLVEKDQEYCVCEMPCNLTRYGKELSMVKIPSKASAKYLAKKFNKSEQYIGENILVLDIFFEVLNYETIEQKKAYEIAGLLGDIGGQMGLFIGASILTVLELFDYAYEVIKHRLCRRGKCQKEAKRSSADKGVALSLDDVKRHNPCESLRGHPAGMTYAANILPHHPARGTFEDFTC
Description: as §1, §2, §3

[1] = target: T3, rat acid-sensing ion channel 1a (rat) (UniProt P55926)
T3 sequence: T2 sequence (P55926 1-526)

Substance | remaining activity at 1 µM (hASIC1b; pH 5 evoked currents) [%] | remaining activity at 1 µM (hASIC1b; pH 6 evoked currents) [%] | increase in IC50 (loss of potency) relative to wild-type Ma-3 (rASIC1a) | fold increase of the IC50 of current inhibition against wild-type Ma-3 (conditioning pH 7.45, stimulus pH 6) [1] [fold] | Hill slope (95% CI) (hASIC1b; conditioning pH 7.45, pH 6 evoked currents, potentiation, 95% CI)
H-SLKCYQHGKVVTCHRDMKFCYHNIGMPFRNAKLILQGCSSSCSETENNKCCSTDRCNK (disulfide 4-20, 13-38, 42-50, 51-56 (inferred)) [L30A] | 116 | 172 | – | – | –
H-SLKCYQHGKVVTCHRDMKFCYHNAGMPFRNLKLILQGCSSSCSETENNKCCSTDRCNK (disulfide 4-20, 13-38, 42-50, 51-56 (inferred)) [I23A] | 67 | 159 | – | – | –
H-SLKCYQHGKVVTCHRDMKFCYHNIGMPFANLKLILQGCSSSCSETENNKCCSTDRCNK (disulfide 4-20, 13-38, 42-50, 51-56 (inferred)) [R28A] | 97 | 118 | greater than 10 fold | – | –
H-SLKCYQHGKVVTCHRDMKFCYHNIGMPFRNLKAILQGCSSSCSETENNKCCSTDRCNK (disulfide 4-20, 13-38, 42-50, 51-56 (inferred)) [L32A] | 96 | 100 | greater than 10 fold | – | –
H-SLKCYQHGKVVTCHRDMKFCYHNIGMPFRNLKLILQGCSAACSETENNKCCSTDRCNK (disulfide 4-20, 13-38, 42-50, 51-56 (inferred)) [S39A/S40A] | 71 | 165 | – | – | –
H-SLKCYQHGKVVTCHRDMKFCYHNIGMPFRNLKLILQGCSSSCSETANNKCCSTDRCNK (disulfide 4-20, 13-38, 42-50, 51-56 (inferred)) [E45A] | 68 | 163 | – | – | –
H-SLKCYQHGKVVTCHADMKFCYHNIGMPFRNLKLILQGCSSSCSETENNKCCSTDRCNK (disulfide 4-20, 13-38, 42-50, 51-56 (inferred)) [R14A] | 77 | 157 | – | – | –
H-SLKCYQHGKVVTCHRDMKFCYHNIGMPFRNLKLILQGCSSSCSETENNKCCSTDRCNA (disulfide 4-20, 13-38, 42-50, 51-56 (inferred)) [K57A] | 73 | 147 | – | – | –
Ma-3 H6A (peptide) | – | – | – | > 10 | –
H-SLKCYQHGKVVTCHRDMKFCYHNIGMPARNLKLILQGCSSSCSETENNKCCSTDRCNK (disulfide 4-20, 13-38, 42-50, 51-56 (inferred)) [F27A] | 96 | 111 | greater than 10 fold | – | –
H-SLKCYQHGKVVTCHRDMKFCYHNIGMPFRNLALILQGCSSSCSETENNKCCSTDRCNK (disulfide 4-20, 13-38, 42-50, 51-56 (inferred)) [K31A] | 94 | 140 | – | – | –
H-SLKCYQHGKVVTCHRDMKFCYHNIGMPFRNLKLILQGCSSSCSETENNKCCSTDACNK (disulfide 4-20, 13-38, 42-50, 51-56 (inferred)) [R54A] | 79 | 145 | – | – | –
H-SLKCYQAGKVVTCHRDMKFCYHNIGMPFRNLKLILQGCSSSCSETENNKCCSTDRCNK (disulfide 4-20, 13-38, 42-50, 51-56 (inferred)) [H6A] | 98 | 103 | greater than 10 fold | – | –
H-SLKCYQHGKVVTCARDMKFCYHNIGMPFRNLKLILQGCSSSCSETENNKCCSTDRCNK (disulfide 4-20, 13-38, 42-50, 51-56 (inferred)) [H13A] | 74 | 142 | – | – | –
H-SLKCYQHGKVVTCHRDMKFCYHNIGMPFRALKLILQGCSSSCSETENNKCCSTDRCNK (disulfide 4-20, 13-38, 42-50, 51-56 (inferred)) [N29A] | 76 | 171 | – | – | –
H-SLKCYQHGKVVTCHRDMKFCYHNIGMPFRNLKLIAQGCSSSCSETENNKCCSTDRCNK (disulfide 4-20, 13-38, 42-50, 51-56 (inferred)) [L34A] | 98 | 116 | greater than 10 fold | – | –
H-SLKCYQHGKVVTCHRDMKFCYHNIGMPFRNLKLALQGCSSSCSETENNKCCSTDRCNK (disulfide 4-20, 13-38, 42-50, 51-56 (inferred)) [I33A] | 100 | 133 | greater than 10 fold | – | –
LKCYQHGKVVTCHRDMKFCYHNTGMPFRNLKLILQGCSSSCSETENNKCCSTDRCNK (disulfide 3-19, 12-37, 41-49, 50-55) [Ma-1, reference compound] | – | – | – | – | 0.73–2.56
H-SLKCYQHGKVVTCHRDMKFCYHNIGMPFRNLKLILQGCSSSCSETENNACCSTDRCNK (disulfide 4-20, 13-38, 42-50, 51-56 (inferred)) [K48A] | 70 | 154 | – | – | –
H-SLKCYQHGKVVTCHRDMKFCYHNIGMPFRNLKLILAGCSSSCSETENNKCCSTDRCNK (disulfide 4-20, 13-38, 42-50, 51-56 (inferred)) [Q35A] | 71 | 168 | – | – | –
